Assay results: patent publication US11279687B2, “Compounds and compositions for the inhibition of NAMPT” (Valo Health, Inc., priority 2010, dated 2022)

What was measured:
NAMPT = NAMPT (Homo sapiens (Human), UniProt P43490); experiment: NAMPT biochemical inhibition assay (NMN quantified by mass spectrometry); details: NAMPT biochemical inhibition; read-out: Biochem IC50
A2780 cells = experiment: In-vitro cell proliferation assay (SRB), A2780 cells; type: cell-based; details: Homo sapiens, A2780, 72 h, A2780 cells, 72 hours, SRB; read-out: A2780 IC50;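 also: viable cell number read as SRB absorbance, background from media-only wells subtracted, IC50 interpolated from percent inhibition at two bracketing compound concentrations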

Sequence of NAMPT (P43490 whole entry): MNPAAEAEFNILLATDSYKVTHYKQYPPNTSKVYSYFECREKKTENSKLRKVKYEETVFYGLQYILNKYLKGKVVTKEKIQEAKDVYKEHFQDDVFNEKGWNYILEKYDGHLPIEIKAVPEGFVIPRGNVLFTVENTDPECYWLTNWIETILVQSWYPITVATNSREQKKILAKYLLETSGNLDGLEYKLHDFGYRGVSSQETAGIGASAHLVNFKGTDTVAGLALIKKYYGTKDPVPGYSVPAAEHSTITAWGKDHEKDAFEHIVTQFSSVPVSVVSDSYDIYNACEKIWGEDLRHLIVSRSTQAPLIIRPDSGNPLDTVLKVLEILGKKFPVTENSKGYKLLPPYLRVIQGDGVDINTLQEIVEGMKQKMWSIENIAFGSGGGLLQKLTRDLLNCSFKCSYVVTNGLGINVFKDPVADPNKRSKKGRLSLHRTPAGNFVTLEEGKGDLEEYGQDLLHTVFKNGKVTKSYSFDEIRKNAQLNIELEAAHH

Row | SMILES | IC50 (NAMPT) [nM] | IC50 (A2780 cells) [nM]
1 | Cc1ccc(S(=O)(=O)c2ccc(NC(=O)NCc3cccnc3)cc2)c(C)c1 [3-{4-[(2,4-dimethylbenzene)sulfonyl]phenyl}-1-(pyridin-3-ylmethyl)urea] | 18 | 967
2 | O=C(NCc1cccnc1)Nc1ccc(S(=O)(=O)c2cc(Cl)ccc2Cl)cc1 [3-{4-[(2,5-dichlorobenzene)sulfonyl]phenyl}-1-(pyridin-3-ylmethyl)urea] | 6 | 652
3 | COc1cc(F)c(S(=O)(=O)c2ccc(NC(=O)NCc3cccnc3)cc2)cc1F [3-{4-[(2,5-difluoro-4-methoxybenzene)sulfonyl]phenyl}-1-(pyridin-3-ylmethyl)urea] | 4 | 105
4 | O=C(NCc1cccnc1)Nc1ccc(S(=O)(=O)c2cc(F)ccc2F)cc1 [3-{4-[(2,5-difluorobenzene)sulfonyl]phenyl}-1-(pyridin-3-ylmethyl)urea] | 4 | 403
5 | COc1ccc(OC)c(S(=O)(=O)c2ccc(NC(=O)NCc3cccnc3)cc2)c1 [3-{4-[(2,5-dimethoxybenzene)sulfonyl]phenyl}-1-(pyridin-3-ylmethyl)urea] | 1 | 7
6 | COc1ccc(OC)c(NS(=O)(=O)c2ccc(NC(=O)NCc3cccnc3)cc2)c1 [3-{4-[(2,5-dimethoxyphenyl)sulfamoyl]phenyl}-1-(pyridin-3-ylmethyl)urea] | 1.2 | 4
7 | Cc1ccc(C)c(S(=O)(=O)c2ccc(NC(=O)NCc3cccnc3)cc2)c1 [3-{4-[(2,5-dimethylbenzene)sulfonyl]phenyl}-1-(pyridin-3-ylmethyl)urea] | 14 | 473
8 | Cc1ccc(C)c(NS(=O)(=O)c2ccc(NC(=O)NCc3cccnc3)cc2)c1 [3-{4-[(2,5-dimethylphenyl)sulfamoyl]phenyl}-1-(pyridin-3-ylmethyl)urea] | 6 | 116
9 | COc1cccc(OC)c1S(=O)(=O)c1ccc(NC(=O)NCc2cccnc2)cc1 [3-{4-[(2,6-dimethoxybenzene)sulfonyl]phenyl}-1-(pyridin-3-ylmethyl)urea] | 7 | 26
10 | Cc1cccc(C)c1S(=O)(=O)c1ccc(NC(=O)NCc2cccnc2)cc1 [3-{4-[(2,6-dimethylbenzene)sulfonyl]phenyl}-1-(pyridin-3-ylmethyl)urea] | 8 | 387
11 | CC(=O)c1ccccc1S(=O)(=O)c1ccc(NC(=O)NCc2cccnc2)cc1 [3-{4-[(2-acetylbenzene)sulfonyl]phenyl}-1-(pyridin-3-ylmethyl)urea] | 2 | 326
12 | O=C(NCc1cccnc1)Nc1ccc(S(=O)(=O)c2ccccc2Br)cc1 [3-{4-[(2-bromobenzene)sulfonyl]phenyl}-1-(pyridin-3-ylmethyl)urea] | 6 | 250
13 | O=C(NCc1cccnc1)Nc1ccc(S(=O)(=O)Nc2ccccc2Br)cc1 [3-{4-[(2-bromophenyl)sulfamoyl]phenyl}-1-(pyridin-3-ylmethyl)urea] | 2 | 24
14 | O=C(NCc1cccnc1)Nc1ccc(S(=O)(=O)Nc2ccc(F)cc2Cl)cc1 [3-{4-[(2-chloro-4-fluorophenyl)sulfamoyl]phenyl}-1-(pyridin-3-ylmethyl)urea] | 0.9 | 36
15 | Cc1ccc(NS(=O)(=O)c2ccc(NC(=O)NCc3cccnc3)cc2)c(Cl)c1 [3-{4-[(2-chloro-4-methylphenyl)sulfamoyl]phenyl}-1-(pyridin-3-ylmethyl)urea] | 1 | 32
16 | Cc1ccc(F)c(S(=O)(=O)c2ccc(NC(=O)NCc3cccnc3)cc2)c1Cl [3-{4-[(2-chloro-6-fluoro-3-methylbenzene)sulfonyl]phenyl}-1-(pyridin-3-ylmethyl)urea] | 7 | 336
17 | O=C(NCc1cccnc1)Nc1ccc(S(=O)(=O)c2ccccc2Cl)cc1 [3-{4-[(2-chlorobenzene)sulfonyl]phenyl}-1-(pyridin-3-ylmethyl)urea] | 5 | 475
18 | O=C(NCc1cccnc1)Nc1ccc(S(=O)(=O)Nc2ccccc2Cl)cc1 [3-{4-[(2-chlorophenyl)sulfamoyl]phenyl}-1-(pyridin-3-ylmethyl)urea] | 3 | 41
19 | CCOc1ccccc1S(=O)(=O)c1ccc(NC(=O)NCc2cccnc2)cc1 [3-{4-[(2-ethoxybenzene)sulfonyl]phenyl}-1-(pyridin-3-ylmethyl)urea] | 2 | 0.4
20 | CCOc1ccccc1NS(=O)(=O)c1ccc(NC(=O)NCc2cccnc2)cc1 [3-{4-[(2-ethoxyphenyl)sulfamoyl]phenyl}-1-(pyridin-3-ylmethyl)urea] | 3 | 32
21 | CCc1ccccc1S(=O)(=O)c1ccc(NC(=O)NCc2cccnc2)cc1 [3-{4-[(2-ethylbenzene)sulfonyl]phenyl}-1-(pyridin-3-ylmethyl)urea] | 2 | 169
22 | COc1cccc(S(=O)(=O)c2ccc(NC(=O)NCc3cccnc3)cc2)c1F [3-{4-[(2-fluoro-3-methoxybenzene)sulfonyl]phenyl}-1-(pyridin-3-ylmethyl)urea] | 1 | 387

Row | SMILES | IC50 (NAMPT) [nM] | IC50 (A2780 cells) [nM]
23 | COc1ccc(S(=O)(=O)c2ccc(NC(=O)NCc3cccnc3)cc2)c(F)c1 [3-{4-[(2-fluoro-4-methoxybenzene)sulfonyl]phenyl}-1-(pyridin-3-ylmethyl)urea] | 3 | 311
24 | Cc1ccc(S(=O)(=O)c2ccc(NC(=O)NCc3cccnc3)cc2)c(F)c1 [3-{4-[(2-fluoro-4-methylbenzene)sulfonyl]phenyl}-1-(pyridin-3-ylmethyl)urea] | 2 | 517
25 | Cc1ccc(NS(=O)(=O)c2ccc(NC(=O)NCc3cccnc3)cc2)c(F)c1 [3-{4-[(2-fluoro-4-methylphenyl)sulfamoyl]phenyl}-1-(pyridin-3-ylmethyl)urea] | 2 | 157
26 | Cc1ccc(F)c(S(=O)(=O)c2ccc(NC(=O)NCc3cccnc3)cc2)c1 [3-{4-[(2-fluoro-5-methylbenzene)sulfonyl]phenyl}-1-(pyridin-3-ylmethyl)urea] | 12 | > 1000
27 | COc1cccc(F)c1S(=O)(=O)c1ccc(NC(=O)NCc2cccnc2)cc1 [3-{4-[(2-fluoro-6-methoxybenzene)sulfonyl]phenyl}-1-(pyridin-3-ylmethyl)urea] | 2 | 10
28 | O=C(NCc1cccnc1)Nc1ccc(S(=O)(=O)c2ccccc2F)cc1 [3-{4-[(2-fluorobenzene)sulfonyl]phenyl}-1-(pyridin-3-ylmethyl)urea] | 3 | 493
29 | O=C(NCc1cccnc1)Nc1ccc(S(=O)(=O)Nc2ccccc2I)cc1 [3-{4-[(2-iodophenyl)sulfamoyl]phenyl}-1-(pyridin-3-ylmethyl)urea] | 0.8 | 39
30 | COc1ccc(C)cc1S(=O)(=O)c1ccc(NC(=O)NCc2cccnc2)cc1 [3-{4-[(2-methoxy-5-methylbenzene)sulfonyl]phenyl}-1-(pyridin-3-ylmethyl)urea] | 4 | 7
31 | COc1ccc(C)cc1NS(=O)(=O)c1ccc(NC(=O)NCc2cccnc2)cc1 [3-{4-[(2-methoxy-5-methylphenyl)sulfamoyl]phenyl}-1-(pyridin-3-ylmethyl)urea] | 2 | 2
32 | COc1ccccc1S(=O)(=O)c1ccc(NC(=O)NCc2cccnc2)cc1 [3-{4-[(2-methoxybenzene)sulfonyl]phenyl}-1-(pyridin-3-ylmethyl)urea] | 2 | 10
33 | COc1ncccc1NS(=O)(=O)c1ccc(NC(=O)NCc2cccnc2)cc1 [3-{4-[(2-methoxypyridin-3-yl)sulfamoyl]phenyl}-1-(pyridin-3-ylmethyl)urea] | 7 | 114
34 | Cc1ccccc1S(=O)(=O)c1ccc(NC(=O)NCc2cccnc2)cc1 [3-{4-[(2-methylbenzene)sulfonyl]phenyl}-1-(pyridin-3-ylmethyl)urea] | 2 | 450
35 | CC(C)(NS(=O)(=O)c1ccc(NC(=O)NCc2cccnc2)cc1)c1ccccc1 [3-{4-[(2-phenylpropan-2-yl)sulfamoyl]phenyl}-1-(pyridin-3-ylmethyl)urea] | 5 | 39
36 | COC[C@@H]1CCCN1S(=O)(=O)c1ccc(NC(=O)NCc2cccnc2)cc1 [3-{4-[(2S)-2-(methoxymethyl)pyrrolidine-1-sulfonyl]phenyl}-1-(pyridin-3-ylmethyl)urea] | 2 | 60
37 | CC[C@H]1CCCCN1S(=O)(=O)c1ccc(NC(=O)NCc2cccnc2)cc1 [3-{4-[(2S)-2-ethylpiperidine-1-sulfonyl]phenyl}-1-(pyridin-3-ylmethyl)urea] | 4 | 18
38 | O=C(NCc1cccnc1)Nc1ccc(S(=O)(=O)c2ccc(Cl)c(Cl)c2)cc1 [3-{4-[(3,4-dichlorobenzene)sulfonyl]phenyl}-1-(pyridin-3-ylmethyl)urea] | 2.9 | 100 to 1000
39 | O=C(NCc1cccnc1)Nc1ccc(S(=O)(=O)Nc2ccc(Cl)c(Cl)c2)cc1 [3-{4-[(3,4-dichlorophenyl)sulfamoyl]phenyl]-1-(pyridin-3-ylmethyl)urea] | 6 | 122
40 | O=C(NCc1cccnc1)Nc1ccc(S(=O)(=O)c2ccc(F)c(F)c2)cc1 [3-{4-[(3,4-difluorobenzene)sulfonyl]phenyl}-1-(pyridin-3-ylmethyl)urea] | 3 | 214
41 | COc1ccc(S(=O)(=O)c2ccc(NC(=O)NCc3cccnc3)cc2)cc1OC [3-{4-[(3,4-dimethoxybenzene)sulfonyl]phenyl}-1-(pyridin-3-ylmethyl)urea] | 5 | 17
42 | COc1ccc(NS(=O)(=O)c2ccc(NC(=O)NCc3cccnc3)cc2)cc1OC [3-{4-[(3,4-dimethoxyphenyl)sulfamoyl]phenyl]-1-(pyridin-3-ylmethyl)urea] | 5 | 116
43 | Cc1ccc(NS(=O)(=O)c2ccc(NC(=O)NCc3cccnc3)cc2)cc1C [3-{4-[(3,4-dimethylphenyl)sulfamoyl]phenyl}-1-(pyridin-3-ylmethyl)urea] | 3 | 93
